The text below walks through data of PMC3528769, “Comparative Study of the Fatty Acid Binding Process of a New FABP from Cherax quadricarinatus by Fluorescence Intensity, Lifetime and Anisotropy” (PLoS ONE, 2012).

The target of assay [1] is T1, Cq-FABP (Cherax quadricarinatus, UniProt L0I6Z9). As to the kind of experiment: cis-Parinaric acid fluorescence intensity titration and competitive displacement. In kind it is binding. As to conditions: calculated from the IC50 values (Eq. 2) using the fluorescence intensity of cis-parinaric acid; 7 µM CPA, 5 µM Cq-FABP; read-out: Kd,FA. The text has this:
Cis-parinaric acid and DAUDA were characterized by fluorescence emission in the 380–500 nm region (λmax,em: 410 nm) and in the 480–650 nm region (λmax,em: 540 nm), respectively (excitation wavelengths were set at 320 or 335 nm for cis-parinaric acid or DAUDA, respectively). The fluorescence intensity enhancement upon binding to Cq-FABP was monitored on a Cary-Eclipse spectrofluorimeter as indicated above. All the fluorescence emission intensities were corrected for the inner-filter effect. The emission intensity of a given fluorophore in the presence of Cq-FABP was also systematically corrected for the emission intensity of the free fluorophore. The calculation of Kd,FA was performed by measuring the IC50 value (inhibition concentration 50%) characterizing each non-fluorescent FA. As DAUDA poorly binds to Cq-FABP (see results section), only cis-parinaric acid (CPA) was used for measuring IC50 values. Titration and equilibrium displacement experiments using CPA were performed in buffer C (supplemented with 10% DMSO (v/v)). For the determination of IC50 values, the number of complexes corresponding to [CPA] = 7 µM and [Cq-FABP] = 5 µM was varied by increasing the concentration of non-fluorescent FA. The IC50 value corresponds to the concentration of non-fluorescent FA that displaces 50% of CPA from the fatty acid binding site of Cq-FABP and is related to Kd,FA through the Cheng-Prusoff relationship: [drawing 2] (2)

Assay [2] has as its target T1, Cq-FABP. As to the kind of experiment: ANS fluorescence intensity titration and equilibrium displacement of ANS by fatty acids. To be noted: calculated from equilibrium displacement experiments using the fluorescence intensity of ANS (Eq. 1); read-out: Kd,FA. It counts as binding. On the procedure:
Fluorescence emission spectra were measured at 25°C on a Cary-Eclipse spectrofluorimeter (Varian, CA, USA) equipped with a thermostated cell holder, using solutions (70 µl) placed in microcuvettes (pathlength, 0.3 cm). The binding of non-fluorescent fatty acids (PA, OA, LA, EPA and DHA) to Cq-FABP was measured indirectly by equilibrium displacement experiments using ANS as a fluorescent probe, either by measuring the fluorescence emission of ANS or by measuring the FRET between tryptophan and ANS, resulting in the quenching of donor fluorescence. The excitation wavelength was then set at 296 or 350 nm for tryptophan or ANS, respectively; the slit widths and PMT voltage were adjusted to optimize the fluorescence signal at 25°C. For titration experiments, the fluorescence emission spectrum of tryptophan or ANS was measured and the integrated fluorescence signal of tryptophan (315–360 nm) or ANS (440–600 nm) was calculated. For samples containing high concentrations of ANS, the inner-filter effect was not negligible and was corrected. UV-visible absorption spectra were carried out on a Uvikon XL spectrophotometer.
The equilibrium dissociation constant (Kd,FA) relative to the binding of fatty acids (FA) to Cq-FABP was determined by competition experiments using ANS displacement and linear regression of the following relationship: [drawing 1] (1) where Kd,ANS is the dissociation constant relative to the binding of ANS to the fatty acid binding site, Kd ^app ,ANS is the apparent dissociation constant of ANS obtained in the presence of a given fatty acid concentration.

T1 sequence (L0I6Z9 entry or part of it): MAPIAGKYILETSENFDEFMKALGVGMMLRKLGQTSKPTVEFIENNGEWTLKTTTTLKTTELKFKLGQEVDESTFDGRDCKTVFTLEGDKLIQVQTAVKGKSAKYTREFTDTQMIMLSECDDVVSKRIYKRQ

With `CCCCCCCCCCCCCCCC(=O)O` [PA, Palmitic acid], the Kd (as a rule, a measure of binding affinity in units of concentration) was 1800 ± 400 nM at Cq-FABP [1] and 1100 ± 300 nM on Cq-FABP [2].
